From ChEMBL document CHEMBL1201862, “PubChem BioAssay data set” (2004) come the findings set out here.

Structures are written as SMILES.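 Tested at 5 concentrations; 48 h exposure; 96-well plates; endpoints linearly interpolated, else capped at highest concentration. At the GI50, growth is halved.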 The source made the active and inactive calls. Cut-off read from the data, not from the text of the source: active = GI50 up to about 1.1 µM and inactive = higher.

Some test systems named below: MDA-MB-435; MDA-N; CCRF-CEM; IGROV-1; Hs-578T; UACC-257; ACHN; NCI/ADR-RES; MCF7; UO-31; SK-MEL-5; T47D; MDA-MB-231; SK-MEL-2; BT-549; PC-3; NCI-H23; COLO 205; HCC 2998.
What all share (assay): NCI anticancer screen, dose series, 48 h

For `N=C(N)SCCc1ccncc1`, the GI50 was > 100 µM (inactive) in the assay on MDA-MB-435; > 100 µM (inactive) in the assay with MDA-N; 65.8 µM (inactive) with CCRF-CEM; > 100 µM (inactive) with IGROV-1; > 100 µM (inactive) in the assay with Hs-578T; > 100 µM (inactive) with UACC-257. Besides, the GI50 in the assay on ACHN, in the assay on NCI/ADR-RES, in the assay on MCF7, in the assay with UO-31, in the assay with SK-MEL-5 and in the assay on T47D was > 100 µM (inactive) each time. In addition, the GI50 with MDA-MB-231, in the assay on SK-MEL-2, in the assay with BT-549, in the assay with PC-3, with NCI-H23 and in the assay on COLO 205 was > 100 µM (inactive) each time.
Consider `O=C(O)c1cc(Sc2ccc([N+](=O)[O-])c(C(=O)O)c2)ccc1[N+](=O)[O-]`, for which the GI50 in the assay with MDA-MB-435, with MDA-N, with CCRF-CEM, in the assay on IGROV-1, in the assay on Hs-578T and with UACC-257 was > 100 µM (inactive) each time. Besides, the GI50 in the assay on ACHN, in the assay on NCI/ADR-RES, with MCF7, in the assay with UO-31, in the assay on SK-MEL-5 and in the assay with T47D was > 100 µM (inactive) throughout. Moreover, the GI50 in the assay on MDA-MB-231, in the assay on SK-MEL-2, in the assay on BT-549, with PC-3 and with COLO 205 was > 100 µM (inactive) in each case.
Turning to `COc1ccc2c(c1)CCCN1Cc3cc(OC)c(OC)cc3CC21` (stereo not given), the GI50 was > 100 µM (inactive) with MDA-MB-435; > 100 µM (inactive) in the assay on MDA-N; 99.8 µM (inactive) in the assay with CCRF-CEM; 22.1 µM (inactive) in the assay on IGROV-1; > 100 µM (inactive) in the assay on Hs-578T; 56.1 µM (inactive) in the assay with UACC-257. Moreover, the GI50 was > 100 µM (inactive) in the assay with ACHN; > 100 µM (inactive) with NCI/ADR-RES; > 100 µM (inactive) in the assay on MCF7; 15.8 µM (inactive) with HCC 2998; 48.8 µM (inactive) with UO-31; 37.8 µM (inactive) in the assay with SK-MEL-5. Moreover, the GI50 with T47D was 20.2 µM (inactive); in the assay with MDA-MB-231, > 100 µM (inactive); with BT-549 it was > 100 µM (inactive); in the assay with PC-3, > 100 µM (inactive); with NCI-H23 it was > 100 µM (inactive); with COLO 205 it was 51.1 µM (inactive).
Consider `CC(=O)/C(=C\c1ccc(Cl)c(Cl)c1)C(=O)C(C)CN(C)C` (stereo not given), for which the GI50 in the assay on MDA-MB-435 was 3.24 µM (inactive); with MDA-N, 3.62 µM (inactive); in the assay on CCRF-CEM, < 0.01 µM (active); in the assay on IGROV-1, 2.07 µM (inactive); in the assay on UACC-257, 10.4 µM (inactive); with ACHN, 5.24 µM (inactive). Also, the GI50 was 13.1 µM (inactive) in the assay on NCI/ADR-RES; 3.61 µM (inactive) in the assay with MCF7; 2.39 µM (inactive) with HCC 2998; 4.01 µM (inactive) in the assay with UO-31; 11.9 µM (inactive) in the assay with SK-MEL-5; 2.65 µM (inactive) with T47D. The GI50 was 11.5 µM (inactive) in the assay with MDA-MB-231; 2.26 µM (inactive) in the assay on BT-549; 4.62 µM (inactive) with PC-3; 13.4 µM (inactive) in the assay with NCI-H23; 11.4 µM (inactive) in the assay with COLO 205.
Regarding `N#Cc1ccsc1Nc1ccccc1[N+](=O)[O-]`, the GI50 in the assay with MDA-MB-435, in the assay with MDA-N, in the assay with CCRF-CEM, in the assay with IGROV-1, in the assay with UACC-257 and with ACHN was > 100 µM (inactive) each time. Further, the GI50 in the assay with NCI/ADR-RES was > 100 µM (inactive); with MCF7, > 100 µM (inactive); with HCC 2998 it was > 100 µM (inactive); in the assay with UO-31, > 100 µM (inactive); in the assay with T47D, > 100 µM (inactive); in the assay on MDA-MB-231 it was 31.3 µM (inactive). Also, the GI50 is 38.5 µM (inactive) in the assay on BT-549, > 100 µM (inactive) in the assay with PC-3, > 100 µM (inactive) with NCI-H23 and > 100 µM (inactive) with COLO 205.
As for `C=CCSc1nnc2cc(CN3CCCC3)c(-c3ccc(Cl)cc3)nn12`, the GI50 was 20 µM (inactive) with MDA-MB-435; 16.7 µM (inactive) with MDA-N; 45.1 µM (inactive) in the assay on CCRF-CEM; 20.7 µM (inactive) in the assay with IGROV-1; 40.6 µM (inactive) with Hs-578T; 17.5 µM (inactive) in the assay on UACC-257. Besides, the GI50 was 15.7 µM (inactive) with ACHN; 23.3 µM (inactive) in the assay with NCI/ADR-RES; 16.1 µM (inactive) in the assay with MCF7; 16 µM (inactive) in the assay on UO-31; 15.5 µM (inactive) in the assay on SK-MEL-5; 20.9 µM (inactive) in the assay on T47D. Besides, the GI50 in the assay with MDA-MB-231 was 19.6 µM (inactive); in the assay on SK-MEL-2, 19.2 µM (inactive); with BT-549, 20.7 µM (inactive); in the assay on PC-3 it was 17.9 µM (inactive); in the assay on NCI-H23, 23.7 µM (inactive); in the assay on COLO 205 it was 17.6 µM (inactive).
With `COc1ccc(N2C(=O)C3c4[nH]c5c(C)cccc5c4C4CCC(C(C)C)CC4C3C2=O)cc1` (stereo not given), the GI50 in the assay on MDA-MB-435 is 7.03 µM (inactive); in the assay with MDA-N, 10.3 µM (inactive); in the assay with IGROV-1, 8.99 µM (inactive); in the assay with Hs-578T it was 8.09 µM (inactive); in the assay on UACC-257 it was 31 µM (inactive); in the assay with ACHN it was 13.7 µM (inactive). Besides, the GI50 in the assay on NCI/ADR-RES is 16.1 µM (inactive); with MCF7, 5.02 µM (inactive); with HCC 2998, 10.3 µM (inactive); in the assay on UO-31 it was 11.8 µM (inactive); in the assay on SK-MEL-5, 12 µM (inactive); with T47D, 5.96 µM (inactive). Further, the GI50 with MDA-MB-231 is 5.96 µM (inactive); with SK-MEL-2, 16.7 µM (inactive); in the assay on BT-549, 28.6 µM (inactive); in the assay with PC-3, 8.87 µM (inactive); with NCI-H23, 17.3 µM (inactive); with COLO 205, 12.4 µM (inactive).
Consider `CC(C)C(=O)OCN(C)c1nc(N(C)COC(=O)C(C)C)nc(N(C)COC(=O)C(C)C)n1`, for which the GI50 in the assay on MDA-MB-435 was 17.8 µM (inactive); in the assay with MDA-N, 22.2 µM (inactive); in the assay with CCRF-CEM, 22.3 µM (inactive); in the assay with Hs-578T it was 17.9 µM (inactive); with UACC-257 it was 19.1 µM (inactive); in the assay with ACHN, 32 µM (inactive). The GI50 in the assay with NCI/ADR-RES is 34.8 µM (inactive); in the assay on MCF7 it was 35.6 µM (inactive); in the assay with UO-31, 22.2 µM (inactive); with SK-MEL-5, 15.1 µM (inactive); with T47D it was 30.3 µM (inactive); in the assay on MDA-MB-231, 25.2 µM (inactive). The GI50 in the assay on SK-MEL-2 was 23.2 µM (inactive); with BT-549, 20.8 µM (inactive); in the assay on PC-3, 27.7 µM (inactive); with NCI-H23 it was 20.7 µM (inactive); with COLO 205 it was 20.1 µM (inactive).
Turning to `COC(=O)C1CCCN1C(=O)OC(C)(C)C` (stereo not given), the GI50 with MDA-MB-435, in the assay on MDA-N, in the assay with CCRF-CEM, in the assay with IGROV-1, in the assay on UACC-257 and in the assay on ACHN was > 100 µM (inactive) throughout. For the same compound, the GI50 with NCI/ADR-RES, with MCF7, in the assay on HCC 2998, in the assay with UO-31, in the assay on SK-MEL-5 and in the assay with T47D was > 100 µM (inactive) throughout. Besides, the GI50 with MDA-MB-231, with SK-MEL-2, with BT-549, with PC-3, in the assay with NCI-H23 and in the assay with COLO 205 was > 100 µM (inactive) each time.
For the compound `O=C(O)CSC(CC1(c2ccc(Cl)cc2)NC(=O)CS1)c1ccc(Cl)cc1` (stereo not given), the GI50 in the assay on MDA-MB-435 is > 100 µM (inactive); in the assay with MDA-N it was > 100 µM (inactive); in the assay with CCRF-CEM it was 69.3 µM (inactive); with IGROV-1, > 100 µM (inactive); in the assay on Hs-578T, > 100 µM (inactive); with UACC-257 it was 65.9 µM (inactive). Moreover, the GI50 was > 100 µM (inactive) with ACHN; > 100 µM (inactive) in the assay with NCI/ADR-RES; 77.1 µM (inactive) in the assay on MCF7; > 100 µM (inactive) in the assay with UO-31; > 100 µM (inactive) in the assay with SK-MEL-5; 80.9 µM (inactive) in the assay with T47D. Besides, the GI50 was > 100 µM (inactive) in the assay with MDA-MB-231; 83.6 µM (inactive) in the assay with SK-MEL-2; > 100 µM (inactive) with BT-549; > 100 µM (inactive) in the assay on PC-3; > 100 µM (inactive) in the assay with NCI-H23; > 100 µM (inactive) with COLO 205.
`CCN(CC(=O)O)C(=O)c1cccnc1`: the GI50 with MDA-MB-435, in the assay on MDA-N, in the assay with IGROV-1, in the assay with Hs-578T, in the assay with UACC-257 and with ACHN was > 100 µM (inactive) in each case. In addition, the GI50 in the assay with NCI/ADR-RES, with HCC 2998, in the assay on UO-31, in the assay with T47D, with MDA-MB-231 and with SK-MEL-2 was > 100 µM (inactive) each time. The GI50 in the assay with BT-549, with PC-3 and in the assay on NCI-H23 was > 100 µM (inactive) in each case.
